Experimental findings from US10689377B2 (Mirati Therapeutics, Inc., priority 2017, dated 2020) are described below.

One series concerns the target KRas G12C (Homo sapiens, UniProt P01116, G12C). In words: Cellular inhibition of KRas G12C measured by Phospho-ERK in NCI-H358 cells. The series is classed as cell-based. Particulars: pERK(Thr202/Tyr204) normalized with GAPDH, NCI-H358 cells, 3 hours; read-out: IC50. Summed up: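 Following 8-12 h attachment, NCI-H358 cells got serially diluted compound (0.5% DMSO) for 3 hours. Cells were then fixed, permeabilized with cold methanol, and stained for pERK(Thr202/Tyr204) and GAPDH. Ratios were converted to percent of DMSO control, with IC50 obtained by four-parameter regression.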

The nature of series [1]: In vitro stability in human whole blood. The series is classed as in vitro ADME. The note with it: male, whole blood diluted to 50% with PBS, pH 7.4, human whole blood diluted to 50% with PBS, 5 μM, 37° C., 240-minute incubation, read-out: Compound Half-life. Summed up:
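Compounds at 5 μM final were incubated at 37° C in male human whole blood diluted to 50% with PBS pH 7.4 (pre-incubated 15 min), sampled at 0, 60 and 240 min. After RBC lysis and acetonitrile quench, analyte/diazepam IS peak area ratios were measured by LC-MS/MS MRM. % remaining versus time zero; t1/2 = ln(2)/km from first-order regression.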

Bounds are passed on as bounds.

As a reminder, the IC50 is the point on the concentration scale where inhibition reaches its midpoint. By half-life is commonly meant how long it takes for the measured level to halve.

KRas G12C, sequence (P01116 1-188 isoform P01116-2 G12C): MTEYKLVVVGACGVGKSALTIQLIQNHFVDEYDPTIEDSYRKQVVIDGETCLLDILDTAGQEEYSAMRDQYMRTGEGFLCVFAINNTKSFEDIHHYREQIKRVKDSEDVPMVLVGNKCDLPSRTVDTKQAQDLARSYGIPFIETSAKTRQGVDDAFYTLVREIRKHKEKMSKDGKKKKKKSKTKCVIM

Take `CN(C)C/C=C/C(=O)N1CCN(c2nc(OC[C@@H]3CCCN3C)nc3c2CCN(c2cccc4ccccc24)C3)C[C@@H]1CC#N` [Example 235, 2-((S)-1-((E)-4-(dimethylamino)but-2-enoyl)-4-(2-(((S)-1-methylpyrrolidin-2-yl)methoxy)-7-(naphthalen-1-yl)-5,6,7,8-tetrahydropyrido[3,4-d]pyrimidin-4-yl)piperazin-2-yl)acetonitrile]: the IC50 at KRas G12C lay in the range of 0.1 to 1000 nM. Besides, the half-life at 5 µM in series [1] was greater than 33.3 h.

Turning to `C=C(COC)C(=O)N1CCN(c2nc(OC[C@@H]3CCCN3C)nc3c2CCN(c2cccc4cccc(Cl)c24)C3)C[C@@H]1CC#N` [Example 485, 2-[(2S)-4-[7-(8-chloro-1-naphthyl)-2-[[(2S)-1-methylpyrrolidin-2-yl]methoxy]-6,8-dihydro-5H-pyrido[3,4-d]pyrimidin-4-yl]-1-[2-(methoxymethyl)prop-2-enoyl]piperazin-2-yl]acetonitrile], the IC50 at KRas G12C fell in the range of 0.1 to 1000 nM. For the same compound, the half-life at 5 µM in series [1] is greater than 33.3 h.
